Drawing on patent US8742110B2, “Spiroxazolidinone compounds” (Merck Sharp & Dohme Corp., priority 2010, dated 2014), this text covers IC50 for 11 compounds.

Where a name gives a salt, the structure may show the parent alone.

Chain of SSTR5 (P35346 whole entry): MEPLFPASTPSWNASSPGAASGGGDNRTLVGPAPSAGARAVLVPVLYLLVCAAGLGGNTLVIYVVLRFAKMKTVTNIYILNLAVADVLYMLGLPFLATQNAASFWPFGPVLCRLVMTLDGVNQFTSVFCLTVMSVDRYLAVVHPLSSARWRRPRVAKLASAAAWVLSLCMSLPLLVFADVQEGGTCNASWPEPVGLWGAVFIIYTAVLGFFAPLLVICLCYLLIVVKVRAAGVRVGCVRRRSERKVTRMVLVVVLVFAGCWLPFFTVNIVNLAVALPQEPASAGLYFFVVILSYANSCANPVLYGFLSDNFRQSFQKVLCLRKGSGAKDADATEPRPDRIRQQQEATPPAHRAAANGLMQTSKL

The experiment addresses SSTR5 (Homo sapiens (Human), UniProt P35346). Description: SSTR5 binding assay. Conditions: CHO-K1 membranes expressing cloned human SSTR5. Here is the method:
The receptor-ligand binding assays of all 5 subtype of SSTRs were performed with membranes isolated from Chinese hamster ovary (CHO)-K1 cells stably expressing the cloned human somatostatin receptors in 96-well format as previous reported.
The stable cell lines for SSTR1-SSTR5 were developed by stably transfecting with DNA for all five SSTRs using Lipofectamine. […] The assay buffer consisted of 50 mM TrisHCl (pH 7.8) with 1 mM EGTA, […] MgCl2, leupeptin (10 μg/mL), pepstatin (10 μg/mL), bacitracin (200 μg/mL), and aprotinin (0.5 μg/mL). CHO-K1 cell membranes, radiolabeled somatostatin, and unlabeled test compounds were resuspended or diluted in this assay buffer. Unlabeled test compounds were examined over a range of concentrations from 0.01 nM to 10,000 nM.
Compounds exemplified were tested in the SSTR5 binding assay.
Take `CCCCn1nc(Cc2cc(F)c(F)cc2F)c(CN2CCC3(CC2)CN(c2ccc(C(=O)O)cc2)C(=O)O3)c1Cl` [Example 1-44, 4-(8-{[5-Chloro-1-butyl-3-(2,4,5-trifluorobenzyl)-1H-pyrazol-4-yl]methyl}-2-oxo-1-oxa-3,8-diazaspiro[4.5]dec-3-yl)benzoic acid, TFA salt]: the IC50 is 14.3 nM.
To `COc1ccc(-c2nn(C(C)(C)C)cc2CN2CCC3(CC2)CN(c2ccc(C(=O)O)cc2)C(=O)O3)c(F)c1` [Example 1-32, 4-(8-{[1-tert-Butyl-3-(2-fluoro-4-methoxyphenyl)-1H-pyrazol-4-yl]methyl}-2-oxo-1-oxa-3,8-diazaspiro[4.5]dec-3-yl)benzoic acid, TFA salt] belongs 2.05 nM; to `CC(C)n1cc(CN2CCC3(CC2)CN(c2ccc(C(=O)O)cc2)C(=O)O3)c(-c2ccc(F)c(F)c2F)n1` [Example 1-17, 4-(2-Oxo-8-{[1-(propan-2-yl)-3-(2,3,4-trifluorophenyl)-1H-pyrazol-4-yl]methyl}-1-oxa-3,8-diazaspiro[4.5]dec-3-yl)benzoic acid, TFA salt], 2.14 nM; to `COc1ccc(-c2nn(-c3ccccc3)cc2CN2CCC3(CC2)CN(c2ccc(C(=O)O)cc2)C(=O)O3)cc1` [Example 1-9, 4-(8-{[3-(4-Methoxyphenyl)-1-phenyl-1H-pyrazol-4-yl]methyl}-2-oxo-1-oxa-3,8-diazaspiro[4.5]dec-3-yl)benzoic acid, TFA salt], 2 nM.
The value for `COc1ccc2c(CN3CCC4(CC3)CN(c3ccc(C(=O)O)cc3)C(=O)O4)nn(CC(=O)C(C)(C)C)c2c1` [Example 6-15, 4-(8-{[1-(3,3-Dimethyl-2-oxobutyl)-6-methoxy-1H-indazol-3-yl]methyl}-2-oxo-1-oxa-3,8-diazaspiro[4.5]dec-3-yl)benzoic acid, TFA salt] was 1200 nM.
To `O=C(O)c1ccc(N2CC3(CCN(Cc4cn(-c5ccc6ccccc6c5)nc4-c4ccc(F)c(F)c4F)CC3)OC2=O)cc1` [Example 1-26, 4-(8-{[1-(Naphthalen-2-yl)-3-(2,3,4-trifluorophenyl)-1H-pyrazol-4-yl]methyl}-2-oxo-1-oxa-3,8-diazaspiro[4.5]dec-3-yl)benzoic acid, TFA salt] belongs 2.72 nM.
`CCCCn1cc(CN2CCC3(CC2)CN(c2ccc(C(=O)O)cc2)C(=O)O3)c2ccc(OC)cc21` [Example 6-21, 4-{8-[(6-Methoxy-1-butyl-1H-indol-3-yl)methyl]-2-oxo-1-oxa-3,8-diazaspiro[4.5]dec-3-yl}benzoic acid, TFA salt] yielded an IC50 of 11.7 nM. This IC50 is about 4.3-fold higher than that of the compound before.
Turning to `CCOc1ccc(-c2cc(F)c(F)cc2F)c(CN2CCC3(CC2)CN(c2ccc(C(=O)O)cc2)C(=O)O3)c1` [Example 4-1, 4-{8-[(4-Ethoxy-2′,4′,5′-trifluorobiphenyl-2-yl)methyl]-2-oxo-1-oxa-3,8-diazaspiro[4.5]dec-3-yl}benzoic acid, TFA salt], the IC50 is 0.793 nM. Against the preceding compound, the IC50 is about 15-fold lower.
To `CC(C)(C)n1cc(CN2CCC3(CC2)CN(c2ccc(C(=O)O)cc2)C(=O)O3)c(-c2c(F)cc(F)cc2F)n1` [Example 1-8, 4-(8-{[1-tert-Butyl-3-(2,4,6-trifluorophenyl)-1H-pyrazol-4-yl]methyl}-2-oxo-1-oxa-3,8-diazaspiro[4.5]dec-3-yl)benzoic acid, TFA salt] belongs 2.16 nM.
The value for `CCOc1cc(CN2CCC3(CC2)CN(c2ccc(C(=O)O)c(OC)c2)C(=O)O3)c(-c2ccc(F)c(F)c2F)cc1C` [Example 4-18, 4-{8-[(4-Ethoxy-2′,3′,4′-trifluoro-5-methylbiphenyl-2-yl)methyl]-2-oxo-1-oxa-3,8-diazaspiro[4.5]dec-3-yl}-2-methoxybenzoic acid, TFA salt] was 0.228 nM; that for `Cc1cc(-c2ccc(C(F)(F)F)nc2)c(CN2CCC3(CC2)CN(c2ccc(C(=O)O)cc2)C(=O)O3)cc1Cl` [Example 4-26, 4-(8-{5-Chloro-4-methyl-2-[6-(trifluoromethyl)pyridin-3-yl]benzyl}-2-oxo-1-oxa-3,8-diazaspiro[4.5]dec-3-yl)benzoic acid, TFA salt] was 9.35 nM.

In general, IC50 refers to the concentration at which inhibition is half-maximal. A high value points to weaker potency in that assay.
